From patent publication US5081113A, “Novel 3-keto-steroids” (Roussel Uclaf, priority 1989, dated 1992)
Where two headings read alike, the source gives them in different places.

Tests used:
[1] = test system: lipid peroxidation (MDA formation) in brain homogenates; assay: Test of formation of malondialdehyde (MDA), non-enzymatic lipid peroxidation triggered by ferrous sulfate in brain homogenates; assay type: biochemical, S-D rats; details: brain homogenate, 60 minutes at 37° C.
Description: 1.1 MDA formation was measured on 10-fold diluted (V/V) homogenates of brains of S-D rats (200 g) prepared in Krebs buffer pH 7.4 under the conditions described in J. Biol. Chem., Vol. 262 (1987), p. 10438 to 10440. 1 ml of homogenate was incubated for 60 minutes at 37° C. in the presence of 25 microliters of ethanol or water or a mixture of the two depending on the product containing or not containing the test product, after the addition of 25 microliters of ferrous sulfate solution prepared immediately before use in water outgassed with argon (200 micromoles final). 0.25 ml of incubated mixture were withdrawn and 1.5 ml of 1% strength phosphoric acid, 0.25 ml of a solution containing 200 micromoles of deferoxamine (Desferal^.phi., Ciba Geigy) in water, 10 microliters of butylated hydroxy-toluene (BHT) at a concentration of 8.7 mg/ml in ethanol and 0.5 ml of thiobarbituric acid (TBA) at a concentration of 0.6% in water were added. The mixture was heated to 100° C. for 45 minutes and cooled. 4 ml of n-butanol were added and the mixture was centrifuged for 15 minutes at 4000 rpm and the OD of the supernatant fraction was then read at 535 nm. The reaction blanks in the absence of Fe^++ were incubated under the same conditions.

[2] = test system: lipid peroxidation (MDA formation) in rat liver microsomes; assay: Test of formation of malondialdehyde (MDA), non-enzymatic lipid peroxidation triggered by ferrous sulfate in rat liver microsomes; assay type: biochemical, S-D rats; details: ferrous sulfate/ascorbate, pH 7.4, 15 minutes at 37° C.
Description: The reaction was stopped by adding 2 ml of a 1M solution of trichloroacetic acid in 0.25M hydrochloric acid containing 0.4% of thiobarbituric acid. The mixture was heated to 85° C. for 25 minutes, cooled and centrifuged for 15 minutes at 3500 rpm, and the OD of the supernatant fraction was then read at 535 nm. The reaction blanks in the absence of Fe^++ were performed at the same time. The percentage inhibition was calculated as above.

[3] = test system: lipid peroxidation (MDA formation) in rat liver microsomes; details: liver microsomes of phenobarbital-pretreated rats, NADPH/carbon tetrachloride, pH 7.4, 15 minutes at 37° C.

Compound | percentage inhibition (MDA formation) ([1]; 1 * 10^-4 M) [%] | percentage inhibition (MDA formation) ([1]; 1 * 10^-5 M) [%] | percentage inhibition (MDA formation) ([1]; 5 * 10^-4 M) [%] | percentage inhibition (MDA formation) ([2]; 1*10^-5 M) [%] | percentage inhibition (MDA formation) ([2]; 1*10^-6 M) [%] | percentage inhibition (MDA formation) ([2]; 5*10^-5 M) [%] | percentage inhibition (MDA formation) ([2]; 5*10^-6 M) [%] | percentage inhibition (MDA formation) ([3]; 1*10^-5 M) [%] | percentage inhibition (MDA formation) ([3]; 1*10^-6 M) [%] | percentage inhibition (MDA formation) ([3]; 5*10^-6 M) [%]
C[C@]12CCC(=O)C=C1C=C[C@@H]1[C@@H]2[C@@H](O)C[C@@]2(C)[C@H]1CC[C@@]2(O)C#CCN1CCN(c2cc(N3CCCC3)nc(N3CCCC3)n2)CC1 [Example 1, 17α-[3-{4-[(2,6-bis(1-pyrrolidinyl)-4-pyrimidinyl]-1-piperazinyl}-1-propynyl]-Δ^4,6-androstadien-11β,17β-diol-3-one methanesulfonate] | 9.8 ± 11.2 | -10.6 ± 9.0 | 60.8 ± 3.0 | 46 ± 3 | 0 ± 18 | 97.5 ± 0.5 | 19.5 ± 6 | 86 ± 2 | 16 ± 1 | 75 ± 4
CC1=C[C@@H]2[C@H]([C@@H](O)C[C@@]3(C)[C@H]2CC[C@@]3(O)C#CCN2CCN(c3cc(N4CCCC4)nc(N4CCCC4)n3)CC2)[C@@]2(C)C=CC(=O)C=C12 [Example 2] | 26.6 ± 3.9 | 28.0 ± 4.1 | 53.1 ± 7.8 | 11.3 ± 2 | 0 ± 2 | 85 ± 1.5 | 0 ± 3 | 80 ± 1 | 22 ± 1.5 | 61 ± 1.5
CCN(CC)c1ccc(N2CCN(CC#C[C@]3(O)CC[C@H]4[C@@H]5C=C(C)C6=CC(=O)C=C[C@]6(C)[C@H]5[C@@H](O)C[C@@]43C)CC2)nc1N(CC)CC [Example 3, 17α-[3-{4-[5,6-bis(diethylamino)-2-pyridyl]-1-piperazinyl}-1-propynyl]-6-methyl-Δ^1,4,6-androstatrien-11β,17β-diol-3-one] | 62.9 ± 4.5 | 51.3 ± 13.7 | 64.2 ± 10 | 95.5 | 55 ± 9 |  | 99.5 | 93 | 48 ± 2 | 89 ± 2
CCN(CC)c1ccc(N(CC)CC)c(N2CCN(CC#C[C@]3(O)CC[C@H]4[C@@H]5C=C(C)C6=CC(=O)C=C[C@]6(C)[C@H]5[C@@H](O)C[C@@]43C)CC2)n1 [Example 4, 17α-[3-{4-[3,6-bis(diethylamino)-2-pyridyl]-1-piperazinyl}-1-propynyl]-6-methyl-Δ^1,4,6-androstatrien-11β,17β-diol-3-one] | 51.0 ± 12.4 | 48.5 ± 13.1 | 65.4 ± 10.1 | 100 | 51 ± 3 |  | 99.5 | 91 ± 2 | 49 ± 2 | 85
